Data from patent publication US20230145822A1 (priority 2020, published 2023).
“Also recorded” adds a separate entry of the source. Like-named read-outs stand apart in the source and are kept apart here.

How the values were obtained:
human PrP^C = human PrP^C (Homo sapiens, UniProt P04156); type: cell-based
LC3II = type: cell-based
NEGR-1 = type: cell-based
mouse PrP^C mRNA = type: cell-based
PrP^C mRNA [1] = type: cell-based, human
PrP^C mRNA [2] = type: cell-based, mouse
PrP^C = PrP^C (Mus musculus, UniProt P04925); type: cell-based; conditions: 1-10 μM, 24 h, PNGase-F
EGFP-PrP^C = type: cell-based, mouse; conditions: 24 h, 3-10 μM
ZR-75 cells = conditions: human
RML prion strain = type: cell-based, mouse

Chain of PrP^C (P04925 23-254 limits assumed): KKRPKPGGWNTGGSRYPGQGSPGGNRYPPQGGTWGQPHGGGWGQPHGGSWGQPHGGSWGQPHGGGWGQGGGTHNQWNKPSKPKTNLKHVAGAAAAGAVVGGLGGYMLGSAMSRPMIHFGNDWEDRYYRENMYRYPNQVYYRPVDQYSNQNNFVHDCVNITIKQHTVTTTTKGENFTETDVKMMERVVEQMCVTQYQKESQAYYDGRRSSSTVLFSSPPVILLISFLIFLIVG

Compound: CO/C1=C\C(C)=C\[C@@H](C)[C@@H](O)[C@@H](C)C/C(C)=C/C=C/[C@H](OC)[C@@H]([C@@H](C)[C@@H](O)[C@H](C)[C@@]2(O)C[C@@H](O)[C@H](C)[C@@H](C(C)C)O2)OC1=O [BAF, Bafilomycin A1, reference compound]
- effect on SM875-induced decrease of PrP^C levels (human PrP^C): almost completely prevents

Compound: OC[C@H]1O[C@H](O[C@H]2O[C@H](CO)[C@@H](O)[C@H](O)[C@H]2O)[C@H](O)[C@@H](O)[C@@H]1O [trehalose, reference compound]
- LC3II levels (LC3II): increased LC3-II levels

Compound: COc1cc(C2CC(=O)Nc3c2cnn3-c2ccc(I)cc2)ccc1O (stereo not shown) [GC6]
- IC25 (human PrP^C): sub-micromolar
- IC50 (human PrP^C): sub-micromolar
- effect on PrP^C expression (human PrP^C): even more prominent activity in ZR-75 cells than in HEK293 cells

Compound: COc1cc(C2CC(=O)Nc3c2cnn3-c2ccc(Br)cc2)ccc1O (stereo not shown) [SM875]
- effect on control protein NEGR-1 (NEGR-1): did not produce any effect
- PrP^C mRNA levels (mouse PrP^C mRNA): does not decrease PrP^C mRNA levels
- PrP^C mRNA levels (PrP^C mRNA [1]): does not decrease PrP^C mRNA levels
- PrP^C mRNA levels (PrP^C mRNA [2]): does not decrease PrP^C mRNA levels
- alpha-cleavage (C1 PrP) (PrP^C): dose-dependent increase of Cl PrP
- cell surface EGFP-PrP^C (EGFP-PrP^C): drastic reduction
- LC3II levels (LC3II): large increase; also recorded: much smaller increase
- cytotoxicity (HEK293 cells): evident cytotoxicity
- estimated median lethal dose, LD50 (HEK293 cells; human): 4.6 µM

Compound: COc1cc2c(cc1OC)CN(C(=O)c1cccc(Cl)c1)CC2 [SM950]
- concentration from which human PrP^C expression is suppressed (human PrP^C): ≥ 1 µM
- PrP^C mRNA levels (mouse PrP^C mRNA): do not suppress mouse PrP^C mRNA levels
- concentration inducing cell death (HEK293 cells; human): ≥ 3 µM
- concentration inducing cell death (ZR-75 cells): 30 µM

Compound: Cc1ccccc1Cn1c(=O)c2c(nc3n(-c4ccccc4O)c(C)c(C)n23)n(C)c1=O [SM940]
- concentration from which human PrP^C expression is suppressed (human PrP^C): ≥ 3 µM
- PrP^C mRNA levels (mouse PrP^C mRNA): do not suppress mouse PrP^C mRNA levels
- concentration inducing cell death (HEK293 cells; human): > 30 µM
- concentration inducing cell death (ZR-75 cells): > 30 µM

Compound: Fe(III)-TMPyP
- prion levels (PK-resistant PrP) (RML prion strain): inhibits prion levels

Compound: COc1cc(C2CC(=O)Nc3c2cnn3-c2cccc(F)c2)ccc1O (stereo not shown) [SM898]
- estimated median lethal dose, LD50 (HEK293 cells; human): 37.9 µM
- reduction of cytotoxicity versus SM875 (HEK293 cells; human): ~3 times

Compound: OCC(O)Cn1c2ccc(Br)cc2c2cc(Br)ccc21 (stereo not shown) [SM930]
- concentration from which human PrP^C expression is suppressed (human PrP^C): ≥ 3 µM
- concentration inducing cell death (HEK293 cells; human): 30 µM
- concentration inducing cell death (ZR-75 cells): 30 µM
